Experimental findings from patent publication US20220304999A1, “REBAMIPIDE FOR USE IN PREVENTION AND/OR TREATMENT OF ARTERIAL STIFFNESS” (SQUARE POWER LTD., priority 2019, published 2022) are described below.

This experiment is described as follows: Carotid to femoral pulse wave velocity (cfPWV) study in patients suffering from arterial stiffness. The format is in vivo, human. The source says:
Aging of cardiovascular system is associated with worsening of arterial cushion function resulting in higher pulse pressure (systolic-diastolic amplitude). Pulse wave velocity (PWV), i.e. velocity at which the blood pressure pulse propagates through the circulatory system, is the gold standard method for arterial stiffness quantification. It can be readily measured non-invasively in humans, is highly reproducible, and predicts future cardiovascular events and all-cause mortality independent of conventional cardiovascular risk factors.
Pulse wave travels along the arteries at a velocity rate, which varies according to wall elasticity: the less elastic the wall, the higher the velocity of PW propagation. PWV measures the time of travel of the pressure wave over a known distance and is calculated as the distance between the two positions of the pulse transducer divided by the time delay measured between pressure upstroke at each site.
To study the effect of rebamipide on arteries, a small study on patients suffering from arterial stiffness was performed. […] Carotid to femoral PWV (cfPWV) was measured in both groups at 0, 3, 6, 9 and 12 months.

For the compound `O=C(NC(Cc1cc(=O)[nH]c2ccccc12)C(=O)O)c1ccc(Cl)cc1` (centres unmarked) [rebamipide, 2-[(4-chlorobenzoyl)amino]-3-(2-oxo-1H-quinolin-4-yl)propanoic acid], the “arterial stiffness (carotid to femoral PWV)” value (patients with PWV above normal for age, no atherosclerosis or hyperlipidemia, rebamipide 200 mg three times a day for 12 months vs placebo, cfPWV at 0, 3, 6, 9, 12 months) is “gradually decreasing”. Further, where the note is “rebamipide 200 mg three times a day vs placebo, 12 months”, the “difference in arterial stiffness between rebamipide and placebo groups” value is given as “reached statistical significance”.
